Experimental data as given in patent EP2848929A1, “Graphene FET-based biosensor” (AIT Austrian Institute of Technology GmbH, priority 2013, dated 2015).
Like-named read-outs stand apart in the source and are kept apart here.

Legend:
[1] = target: T1, OBP14 (Apis mellifera, UniProt A0A8U0WQC3); conditions: fluorescent displacement assays, literature; cited from earlier work
[2] = target: T1, OBP14; test: biochemical; format: binding, honeybees; conditions: for kon: read-out: [kon] / M^-1s^-1; for binding to OBP14 (in words): qualitative ranking from biosensor results
[3] = 10^- 6[KD] /M, Table 1, KD = 1/KA from titration, Langmuir model, 1mM PBS, pH = 8.0
[4] = Table 1, affinity constant KA = kon/koff from titration, Langmuir model, 1mM PBS, pH = 8.0
[5] = 10^-6 [KD] /M, Table 2, KD = 1/KA from titration, Langmuir model fit
[6] = Table 2, affinity constant KA = kon/koff from titration, Langmuir model fit
[7] = Table 2, association rate constant from titration fit
[8] = Table 2, dissociation rate constant from final buffer wash fit, read-out: [ koff] / s^-1
[9] = dissociation constant of KD, control experiment, eugenol and methyl eugenol on the same sensor device
[10] = KD, from Langmuir isotherm plot, half saturation concentration (50% surface coverage)
[11] = KD, from the kinetic measurement (titration fitted with Langmuir model)
[12] = 10^2 [KA] /M^-1, Table 2, affinity constant KA = kon/koff from titration, Langmuir model fit

T1 sequence (A0A8U0WQC3 entry or part of it): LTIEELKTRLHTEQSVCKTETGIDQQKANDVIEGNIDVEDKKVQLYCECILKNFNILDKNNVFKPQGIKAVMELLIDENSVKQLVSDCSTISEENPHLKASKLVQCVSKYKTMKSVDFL

For `COc1cc(CC(=O)O)ccc1O` [Homovanillic acid, 2-(4-Hydroxy-3-methoxy-phenyl)acetic acid], the “affinity to OBP14 (in words)” value [1] is listed as “did not show good affinity”, the Kd [2, 3] is listed as 6.5 ± 0.7 µM and the “10^2 [KA] /M^-1” value [2, 4] is listed as 1540 ± 140 10^2 M^-1. It also gave a koff ([2]; read-out: [koff] /s ^-1) of 0.0078 s⁻¹.
In the case of `C=CCc1ccc(OC)c(OC)c1` [Methyl eugenol, 1,2-Dimethoxy-4-prop-2-enylbenzene], the Kd [2, 5] is reported as 520 ± 0.1 µM, the “10^2 [KA] /M^-1” value [2, 6] is reported as 19.23 ± 0.03 10^2 M^-1 and the kon [2, 7] is reported as 8.92 ± 0.01 M⁻¹ s⁻¹. For the same compound, the koff [2, 8] was 0.0046 s⁻¹, the Kd [2, 9] was 590 µM and the “concentration at which equilibrium was achieved, relative to the other odorants” value ([2]; titration curves Fig. 3, compared with three ligands with phenolic based structure) was “about 10 fold”.
In the case of `CC(=O)OCCC(C)C` [Isoamyl acetate, 3-methylbutyl acetate], the Kd ([2]; Table 1, KD = 1/KA from titration, Langmuir model, 1mM PBS, pH = 8.0, read-out: 10^- 6[KD] /M) is reported as 814 ± 58 µM, the “10^2 [KA] /M^-1” value [2, 4] is reported as 12.33 ± 0.86 10^2 M^-1 and the “[kon] /M^1s^-1” value ([2]; Table 1, association rate constant from titration fit) is reported as 8.3 ± 0.6 M^1s^-1. The koff ([2]; Table 1, dissociation rate constant from final buffer wash fit, read-out: [koff] /s ^-1) was 0.0068 s⁻¹ and the “binding to OBP14 (in words)” value [2] was “behave poorly”.
With `CC(C)=CCCC(C)=CC=O` (mixture of isomers) [Citral, (2E)-3,7-dimethylocta-2,6-dienal] the Kd [2, 3] was 589.2 ± 0.6 µM, the Kd [2, 10] was 550 µM and the Kd [2, 11] was 590 µM. For the same compound, the “10^2 [KA] /M^-1” value [2, 4] was 16.97 ± 0.02 10^2 M^-1, the “binding to OBP14 (in words)” value [2] was “moderate or weak binders” and the koff ([2]; read-out: [koff] /s ^-1) was 0.0035 s⁻¹.
With `CC(C)=CCC/C(C)=C/CO` [Geraniol, (2E)-3,7-Dimethylocta-2,6-dien-1-ol] the Kd [2, 3] was 1120 ± 5 µM, the “10^2 [KA] /M^-1” value [2, 4] was 8.96 ± 0.04 10^2 M^-1 and the “binding to OBP14 (in words)” value [2] was “moderate or weak binders”. For the same compound, the koff ([2]; read-out: [koff] /s ^-1) was 0.0077 s⁻¹.
For `CC(=O)CCC=C(C)C` [Sulcatone, 6-Methylhept-5-en-2-one], the Kd [2, 3] was 1410 ± 21 µM, the Kd [2, 10] was 1500 µM and the Kd [2, 11] was 1400 µM. The “10^2 [KA] /M^-1” value [2, 4] was 7.07 ± 0.11 10^2 M^-1, the “binding to OBP14 (in words)” value [2] was “behave poorly” and the koff ([2]; read-out: [koff] /s ^-1) was 0.0074 s⁻¹.
With `COc1cc(CCC(C)=O)ccc1O` [Vanillyl acetone, 4-(4-hydroxy-3-methoxyphenyl)butan-2-one] the “10^2 [KA] /M^-1” value [2, 6] was 409.7 ± 0.3 10^2 M^-1, the Kd ([2]; read-out: 10^-6 [KD] /M) was 24.4 ± 0.02 µM and the koff ([2]; read-out: [ koff] / s^-1) was 0.007 s⁻¹. It also gave a kon [2] of 286.8 ± 0.2 M⁻¹ s⁻¹.
For `COC(=O)c1ccc(O)c(OC)c1` [Methyl vanillate, Methyl 4-hydroxy-3-methoxybenzoate], the Kd ([2]; Table 2, KD = 1/KA from titration, Langmuir model fit, read-out: 10^-6 [KD] /M) was 22 ± 4.5 µM, the “10^2 [KA] /M^-1” value [2, 6] was 479 ± 136 10^2 M^-1 and the kon [2, 7] was 239 ± 68 M⁻¹ s⁻¹. The koff [2, 8] was 0.005 s⁻¹, the Kd ([2]; from Langmuir isotherm of change in drain current ΔIDS vs odorant concentration [Od] (Fig. 1D), read-out: KD) was 10 µM and the Kd ([2]; from Langmuir isotherm plot, half saturation concentration (50% surface coverage), read-out: KD) was 24 µM. It also gave a Kd ([2]; from linear relationship between reaction rate constant k and odorant concentration (Fig. 1B), read-out: KD) of 30 µM and a Kd ([2]; from the kinetic measurement (titration fitted with Langmuir model), read-out: KD) of 22 µM.
For `COc1cc(/C=C/C=O)ccc1O` [Coniferyl aldehyde, (E)-3-(4-hydroxy-3-methoxyphenyl) prop-2-enal], the “affinity to OBP14 (in words)” value [1] is listed as “did not show good affinity”, the Kd [2, 12] is listed as 8.06 µM and the Kd [2, 5] is listed as 9.1 ± 2.3 µM. For the same compound, the koff ([2]; read-out: [ koff] / s^-1) was 0.003 s⁻¹ and the kon [2] was 370 ± 190 M⁻¹ s⁻¹.
With `C=CCc1ccc(O)c(OC)c1` [Eugenol, 4-Allyl-2-methoxyphenol] the koff [2] was 0.003 s⁻¹, the “real-time response (ΔIDS) of the biosensor” value ([2]; 5 µM eugenol solution compared with a 10 fold higher concentrated methyl eugenol solution, same sensor device) was “significantly higher” and the Kd [2, 3] was 9.2 ± 0.7 µM. For the same compound, the Kd [2, 5] was 9.2 ± 0.7 µM, the Kd [2, 10] was 1.9 µM and the Kd [2, 11] was 9.2 µM. The “10^2 [KA] /M^-1” value [2, 4] was 1087 ± 91 10^2 M^-1, the “10^2 [KA] /M^-1” value [2, 6] was 1087 ± 91 10^2 M^-1 and the Kd [2, 9] was 19 µM. For the same compound, the “binding to OBP14 (in words)” value [2] was “high affinity”, the koff ([2]; read-out: [ koff] / s^-1) was 0.003 s⁻¹ and the koff ([2]; read-out: [koff] /s ^-1) was 0.003 s⁻¹. For the same compound, the kon [2] was 326 ± 27 M⁻¹ s⁻¹.
Compound `COc1cc(C=O)ccc1O` [Vanillin, 4-Hydroxy-3-methoxybenzaldehyd] has a Kd [2, 12] of 20.7 µM, a Kd [2, 5] of 23.8 ± 6 µM and a kon [2, 7] of 191 ± 111 M⁻¹ s⁻¹. The koff [2, 8] was 0.0038 s⁻¹.
